The text below walks through data of ChEMBL document CHEMBL3046846, “Synthesis of N-Alkyl-2, 3-dimethyl-5-[N-(5-halo-2-methylphenyl)carbamoyl]-6-pyrazinecarboxamides and Their Herbicidal Activity” (J Pestic Sci, 1997).

The test system of data set [1] is Xanthium strumarium. Description: Herbicidal activity against Xanthium strumarium (cocklebur) 5000 g/ha after 2 weeks. Format: functional.
Data set [2] has as its system Veronica persica. Description: Herbicidal activity against Veronica persica at 5000 g/ha after 2 weeks. Format: functional.
Data set [3] has as its system Avena fatua. As to the kind of experiment: Herbicidal activity against Avena fatua at 5000 g/ha after 2 weeks. Format: functional.
The subject of data set [4] is Galium spurium. As to the kind of experiment: Herbicidal activity against Galium spurium var. echinospermon (Wally.) Hayek at 5000 g/ha after 2 weeks. The class given is functional.
Data set [5] concerns Echinochloa crus-galli. As to the kind of experiment: Herbicidal activity against Echinochloa crus-galli (barnyard grass) at 5000 g/ha after 2 weeks. Format: functional.
In data set [6] the test system is Triticum aestivum. As to the kind of experiment: Herbicidal activity against Triticum aestivum (wheat) at 5000 g/ha after 2 weeks. The class given is ADME, organism-based. Particulars: in vivo, 336 h.
Data set [7] deals with Glycine max. Description: Herbicidal activity against Glycine max (soybean) at 5000 g/ha after 2 weeks. The following applies: in vivo, 336 h. The class given is organism-based.
For data set [8], the system named is Abutilon theophrasti. As to the kind of experiment: Herbicidal activity against Abutilon theophrasti (velvetleaf) at 5000 g/ha after 2 weeks. The class given is functional.
Data set [9] has as its system Abutilon theophrasti. Description: Herbicidal activity against Abutilon theophrasti (velvetleaf) at 250 g/ha after 2 weeks. Format: functional.
Data set [10] deals with Galium spurium. Description: Herbicidal activity against Galium spurium var. echinospermon (Wally.) Hayek at 500 g/ha after 2 weeks. The class given is functional.
Data set [11] deals with Triticum aestivum. Description: Herbicidal activity against Triticum aestivum (wheat) at 500 g/ha after 2 weeks. The class given is ADME, organism-based. The following applies: in vivo, 336 h.
For data set [12], the system named is Veronica persica. As to the kind of experiment: Herbicidal activity against Veronica persica at 250 g/ha after 2 weeks. The class given is functional.
The subject of data set [13] is Echinochloa crus-galli. Description: Herbicidal activity against Echinochloa crus-galli (barnyard grass) at 250 g/ha after 2 weeks. Format: functional.
Data set [14] relates to Glycine max. Description: Herbicidal activity against Glycine max (soybean) at 500 g/ha after 2 weeks. Particulars: in vivo, 336 h. Format: organism-based.
Data set [15] deals with Xanthium strumarium. Description: Herbicidal activity against Xanthium strumarium (cocklebur) 250 g/ha after 2 weeks. The class given is functional.
Data set [16] relates to Avena fatua. Description: Herbicidal activity against Avena fatua at 250 g/ha after 2 weeks. Format: functional.
In data set [17] the test system is Galium spurium. Description: Herbicidal activity against Galium spurium var. echinospermon (Wally.) Hayek at 250 g/ha after 2 weeks. The class given is functional.
The subject of data set [18] is Avena fatua. As to the kind of experiment: Herbicidal activity against Avena fatua at 500 g/ha after 2 weeks. Format: functional.
Data set [19] deals with Xanthium strumarium. As to the kind of experiment: Herbicidal activity against Xanthium strumarium (cocklebur) 500 g/ha after 2 weeks. Format: functional.
The subject of data set [20] is Glycine max. Description: Herbicidal activity against Glycine max (soybean) at 250 g/ha after 2 weeks. Particulars: in vivo, 336 h. Format: organism-based.
For data set [21], the system named is Veronica persica. As to the kind of experiment: Herbicidal activity against Veronica persica at 500 g/ha after 2 weeks. The class given is functional.
Data set [22] deals with Echinochloa crus-galli. Description: Herbicidal activity against Echinochloa crus-galli (barnyard grass) at 500 g/ha after 2 weeks. Format: functional.
The subject of data set [23] is Triticum aestivum. Description: Herbicidal activity against Triticum aestivum (wheat) at 250 g/ha after 2 weeks. The class given is organism-based. Particulars: in vivo, 336 h.
Data set [24] concerns Abutilon theophrasti. Description: Herbicidal activity against Abutilon theophrasti (velvetleaf) at 500 g/ha after 2 weeks. Format: functional.

In the case of `CNC(=O)c1nc(C)c(C)nc1C(=O)Nc1cc(Cl)ccc1C`, the Activity in data set [1] is on record as under 10%; in data set [2], 95%; in data set [3], under 10%; in [4], 10%; in data set [5] it was 10%; in data set [6], 10%. Also, the Activity in data set [7] and in [8] was under 10% in each case.
As to `CCCCCNC(=O)c1nc(C)c(C)nc1C(=O)Nc1cc(Cl)ccc1C`, the Activity in data set [1], in [2], in [3], in data set [4], in [5] and in data set [6] was under 10% each time. The Activity in [7] and in data set [8] was under 10% each time.
`Cc1ccc(Cl)cc1NC(=O)c1nc(C)c(C)nc1C(=O)NCCC(C)C`: the Activity in [1] is given as 30%; in [2] it was 95%; in data set [3] it was 30%; in data set [4] it was 10%; in [5], 70%; in [6] it was under 10%. The Activity is listed as under 10% in data set [7] and 95% in data set [8].
As for `CNC(=O)c1nc(C)c(C)nc1C(=O)Nc1cc(F)ccc1C`, the Activity is recorded as under 10% in data set [1]; 50% in data set [2]; under 10% in [3]; under 10% in data set [4]; under 10% in data set [5]; under 10% in data set [6]. For the same compound, the Activity in [7] and in [8] was under 10% in each case.
As to `CCNC(=O)c1nc(C)c(C)nc1C(=O)Nc1cc(F)ccc1C`, the Activity is reported as 70% in data set [1]; 95% in data set [2]; 10% in [3]; under 10% in [4]; under 10% in [5]; under 10% in [6]. The results for the Activity in [7] and in data set [8] were under 10% and 50%, respectively.
On to `Cc1ccc(F)cc1NC(=O)c1nc(C)c(C)nc1C(=O)NCC(C)C`, for which the Activity is recorded as 30% in data set [9]; under 10% in data set [10]; 10% in data set [11]; 95% in [1]; 95% in [12]; under 10% in data set [13]. The Activity in [14] is reported as under 10%; in data set [15], under 10%; in data set [2] it was 95%; in data set [16] it was under 10%; in [17], under 10%; in data set [18], 10%. Moreover, the Activity was 50% in data set [3]; 95% in data set [19]; under 10% in [20]; 30% in [4]; 30% in [5]; 30% in data set [6]. Also, the Activity is 95% in data set [21]; under 10% in [22]; 10% in data set [23]; under 10% in data set [7]; 70% in [24]; 95% in [8].
For the compound `CC[C@@H](C)NC(=O)c1nc(C)c(C)nc1C(=O)Nc1cc(F)ccc1C`, the Activity is recorded as 30% in [9]; 30% in data set [10]; under 10% in data set [11]; 70% in data set [1]; 30% in [12]; under 10% in [13]. Besides, the Activity in [14] is under 10%; in [15], under 10%; in [2] it was 95%; in [16] it was under 10%; in [17], under 10%; in data set [18] it was under 10%. Further, the Activity is given as 30% in data set [3]; 50% in data set [19]; under 10% in [20]; 70% in [4]; 30% in data set [5]; 50% in data set [6]. Further, the Activity is on record as 95% in [21]; 30% in [22]; under 10% in data set [23]; under 10% in data set [7]; 95% in data set [24]; 95% in data set [8].
For the compound `CC[C@H](C)NC(=O)c1nc(C)c(C)nc1C(=O)Nc1cc(F)ccc1C`, the Activity is recorded as under 10% in data set [9]; under 10% in data set [10]; under 10% in data set [11]; 95% in [1]; 70% in [12]; under 10% in data set [13]. Moreover, the Activity in data set [14] is under 10%; in data set [15], under 10%; in data set [2], 95%; in data set [16], under 10%; in data set [17] it was under 10%; in data set [18] it was under 10%. For the same compound, the Activity in data set [3] is recorded as 50%; in [19], under 10%; in [20], under 10%; in data set [4], 95%; in [5], 70%; in data set [6], 30%. The Activity in data set [21] is 70%; in [22] it was under 10%; in data set [23] it was under 10%; in data set [7], under 10%; in data set [24], under 10%; in data set [8] it was 70%.
Take `Cc1ccc(F)cc1NC(=O)c1nc(C)c(C)nc1C(=O)NC(C)(C)C`: the Activity is on record as under 10% in [9]; under 10% in [10]; under 10% in [11]; 95% in data set [1]; under 10% in [12]; under 10% in data set [13]. The Activity in [14] is given as under 10%; in data set [15] it was under 10%; in [2], 95%; in [16] it was under 10%; in [17], under 10%; in [18], under 10%. The Activity in [3] is on record as 95%; in data set [19] it was under 10%; in data set [20], under 10%; in data set [4], 10%; in [5], 70%; in [6], 30%. In addition, the Activity was 70% in [21]; under 10% in [22]; under 10% in data set [23]; under 10% in [7]; under 10% in data set [24]; 95% in data set [8].
Turning to `CCCCCNC(=O)c1nc(C)c(C)nc1C(=O)Nc1cc(F)ccc1C`, the Activity in data set [1] is listed as under 10%; in data set [2], 30%; in data set [3], under 10%; in data set [4] it was under 10%; in [5], 30%; in data set [6] it was under 10%. Further, the Activity in [7] is listed as under 10%; in [8], 30%.
Turning to `Cc1ccc(F)cc1NC(=O)c1nc(C)c(C)nc1C(=O)NCCC(C)C`, the Activity is given as under 10% in data set [1]; 95% in data set [2]; 30% in data set [3]; under 10% in data set [4]; 30% in [5]; 10% in [6]. In addition, the Activity is on record as under 10% in [7] and 95% in data set [8].
On to `CCC(C)NC(=O)c1nc(C)c(C)nc1C(=O)Nc1cc(F)ccc1C` (racemic), for which the Activity in data set [9] is listed as 95%; in data set [10], under 10%; in data set [11], 30%; in data set [1], 95%; in data set [12] it was 95%; in [13] it was under 10%. The Activity in data set [14] is under 10%; in data set [15] it was under 10%; in data set [2] it was 95%; in data set [16] it was under 10%; in data set [17], under 10%; in [18] it was under 10%. For the same compound, the Activity is 30% in data set [3]; under 10% in data set [20]; 95% in [4]; 30% in data set [5]; 50% in [6]; 95% in data set [21]. For the same compound, the Activity was under 10% in data set [22]; under 10% in [23]; under 10% in [7]; 95% in data set [24]; 95% in data set [8].
